Columns and labels:
BRD4 BD1 = biological target: T1, BRD4 BD1 (Homo sapiens, UniProt O60885); test: AlphaScreen binding assay, BRD4 Bromodomain 1
T1 construct: made in house
How it was run: (§1)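 Compound dilution series were mixed with His-tagged BRD4 bromodomain and biotinylated tetra-acetylated H4 (1-21) peptide at pH 7.3 (BD1 and peptide at 50 nM, BD2 and peptide at 100 nM). Donor and acceptor beads were then added, and plates were equilibrated at least 1 h before reading. IC50 values were fitted with a four-parameter logistic model.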

BRD4 BD2 = biological target: T2, BRD4 BD2 (Homo sapiens, UniProt O60885); test: AlphaScreen binding assay, BRD4 Bromodomain 2
T2 construct: made in house
How it was run: as §1

MV4-11 cells = test: Oncology cell growth assay (3-day proliferation, CellTiter-Glo); assay type: cell-based; conditions: Homo sapiens, MV4-11, 72 h, AML cell line MV4-11, 72 hours, compounds grouped by IC50 range, read-out: MV4-11 IC50 (inhibition of proliferation, gIC50)
How it was run: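 A 3-day proliferation test used MV4-11 cells seeded at 3000 per well with eight compound concentrations (10 μM top, 3-fold dilution) at 37° C in 5% CO2. CellTiter-Glo luminescence defined viable cell signal. A four-parameter logistic curve against DMSO and background wells gave the gIC50.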

| Compound | IC50 (BRD4 BD1) | IC50 (BRD4 BD2) | IC50 (MV4-11 cells) |
| --- | --- | --- | --- |
| CC(=O)N1c2ccc(-c3ccc4c(c3)N(C)S(=O)(=O)N4)cc2N(C(=O)OC(C)C)C[C@@H]1C [Example I-1177] | 100 to 1000 nM | 50 to 500 nM | > 500 nM |
| CC(=O)N1c2ccc(-c3ccc4c(c3)CS(=O)(=O)N4)cc2N(C(=O)OC(C)C)C[C@@H]1C [Example I-1179] | 100 to 1000 nM | 50 to 500 nM | 100 to 500 nM |
| CC(=O)N1c2ccc(-c3ccc(NS(C)(=O)=O)c(F)c3)cc2N(C(=O)C2CC2)C[C@@H]1C [Example I-1180] | 100 to 1000 nM | 50 to 500 nM | > 500 nM |
| CC(=O)N1c2ccc(-c3ccc(NS(C)(=O)=O)c(F)c3)cc2N(C(=O)C2CCC2)C[C@@H]1C [Example I-1181] | 1000 to 10000 nM | 50 to 500 nM | > 500 nM |
| CCOC(=O)N1C[C@H](C)N(C(C)=O)c2ccc(-c3ccc(NS(C)(=O)=O)c(F)c3)cc21 [Example I-1182] | 100 to 1000 nM | 50 to 500 nM | > 500 nM |
| CC(=O)N1c2ccc(-c3ccc(NS(C)(=O)=O)c(F)c3)cc2N(C(=O)OC(C)C)C[C@@H]1C [Example I-1183] | 100 to 1000 nM | < 50 nM | 100 to 500 nM |
| CC(=O)N1c2ccc(-c3ccc4c(c3)N(S(C)(=O)=O)CCC4)cc2N(C(=O)OC(C)C)C[C@@H]1C [Example I-1185] | 100 to 1000 nM | 50 to 500 nM | 100 to 500 nM |
| COc1cc(F)ccc1OC(=O)N1C[C@H](C)N(C(C)=O)c2ccc(-c3cnn(C4CC4)c3)cc21 [Example I-1186] | 100 to 1000 nM | < 50 nM | 100 to 500 nM |
| CC(=O)N1c2ccc(-c3cnn(C4CC4)c3)cc2N(C(=O)Oc2cncc(Cl)c2)C[C@@H]1C [Example I-1187] | 100 to 1000 nM | < 50 nM | > 500 nM |
| CC(=O)N1c2ccc(-c3cnn(C4CC4)c3)cc2N(C(=O)Oc2cncc(F)c2)C[C@@H]1C [Example I-1189] | 100 to 1000 nM | 50 to 500 nM | 100 to 500 nM |
| CC(=O)N1c2ccc(-c3cnn(C4CC4)c3)cc2N(C(=O)Oc2ccc(C)nc2C)C[C@@H]1C [Example I-1190] | 100 to 1000 nM | 50 to 500 nM | > 500 nM |
| CC(=O)N1c2ccc(-c3cnn(C4CC4)c3)cc2N(C(=O)Oc2cccc3ncccc23)C[C@@H]1C [Example I-1191] | 100 to 1000 nM | < 50 nM | 100 to 500 nM |
| CC(=O)N1c2ccc(-c3cnn(C4CC4)c3)cc2N(C(=O)Oc2ccc3cnccc3c2)C[C@@H]1C [Example I-1192] | 100 to 1000 nM | < 50 nM | < 100 nM |
| CC(=O)N1c2ccc(-c3cnn(C4CC4)c3)cc2N(C(=O)Oc2cccc3cccnc23)C[C@@H]1C [Example I-1195] | 100 to 1000 nM | < 50 nM | < 100 nM |
| CC(=O)N1c2ccc(-c3cnn(C4CC4)c3)cc2N(C(=O)Oc2ccc(Cl)c3cccnc23)C[C@@H]1C [Example I-1196] | 100 to 1000 nM | 50 to 500 nM | 100 to 500 nM |
| CC(=O)N1c2ccc(-c3cnn(C4CC4)c3)cc2N(C(=O)Oc2cc(C)ccc2F)C[C@@H]1C [Example I-1198] | 100 to 1000 nM | 50 to 500 nM | 100 to 500 nM |
| COc1ccc(OC(=O)N2C[C@H](C)N(C(C)=O)c3ccc(-c4cnn(C5CC5)c4)cc32)cn1 [Example I-1199] | 100 to 1000 nM | 50 to 500 nM | 100 to 500 nM |
| COc1ccc(F)cc1OC(=O)N1C[C@H](C)N(C(C)=O)c2ccc(-c3cnn(C4CC4)c3)cc21 [Example I-1201] | 100 to 1000 nM | < 50 nM | 100 to 500 nM |
| CC(=O)N1c2ccc(-c3cnn(C4CC4)c3)cc2N(C(=O)Oc2ccc3cccnc3c2)C[C@@H]1C [Example I-1202] | 100 to 1000 nM | 50 to 500 nM | 100 to 500 nM |
| CC(=O)N1c2ccc(-c3cnn(C4CC4)c3)cc2N(C(=O)Oc2cccc3nccnc23)C[C@@H]1C [Example I-1204] | 100 to 1000 nM | < 50 nM | < 100 nM |
| CC(=O)N1c2ccc(-c3cnn(C4CC4)c3)cc2N(C(=O)Oc2ccc3c(c2)ncn3C)C[C@@H]1C [Example I-1205] | 100 to 1000 nM | < 50 nM | 100 to 500 nM |
| CC(=O)N1c2ccc(-c3cnn(C4CC4)c3)cc2N(C(=O)Oc2ccc3ccncc3c2)C[C@@H]1C [Example I-1206] | 100 to 1000 nM | < 50 nM | 100 to 500 nM |
| COc1ncc(Cl)cc1OC(=O)N1C[C@H](C)N(C(C)=O)c2ccc(-c3cnn(C4CC4)c3)cc21 [Example I-1207] | 100 to 1000 nM | 50 to 500 nM | > 500 nM |
| CC(=O)N1c2ccc(-c3cnn(CCO)c3)cc2N(C(=O)N(C)C(C)C)C[C@@H]1C [Example I-1211] | > 10000 nM | 50 to 500 nM | > 500 nM |
| CC(=O)N1c2ccc(-c3cnn(CCO)c3)cc2N(C(=O)N(C)c2ccccc2)C[C@@H]1C [Example I-1212] | > 10000 nM | > 500 nM | > 500 nM |

Further lines, results first:

| IC50 (BRD4 BD1) | IC50 (BRD4 BD2) | IC50 (MV4-11 cells) | Compound |
| --- | --- | --- | --- |
| 100 to 1000 nM | 50 to 500 nM | > 500 nM | CC(=O)N1c2ccc(-c3ccc4c(c3)CS(=O)(=O)N4)cc2N(C(=O)C2CC2)C[C@@H]1C [Example I-1178] |
| 100 to 1000 nM | 50 to 500 nM | 100 to 500 nM | CC(=O)N1c2ccc(-c3ccc4c(c3)N(S(C)(=O)=O)CCC4)cc2N(C(=O)C2CC2)C[C@@H]1C [Example I-1184] |
| 100 to 1000 nM | 50 to 500 nM | 100 to 500 nM | CC(=O)N1c2ccc(-c3cnn(C4CC4)c3)cc2N(C(=O)Oc2ccc(-n3cncn3)cc2)C[C@@H]1C [Example I-1194] |
| 100 to 1000 nM | 50 to 500 nM | 100 to 500 nM | CCS(=O)(=O)c1ccc(-c2ccc3c(c2)N(C(=O)OC2CCOCC2)C[C@H](C)N3C(C)=O)cc1 [Example I-1214] |
| 100 to 1000 nM | 50 to 500 nM | 100 to 500 nM | CC(=O)N1c2ccc(-c3ccc(S(=O)(=O)C4CC4)cc3)cc2N(C(=O)OC2CCCCC2)C[C@@H]1C [Example I-1215] |
| 100 to 1000 nM | 50 to 500 nM | 100 to 500 nM | CC(=O)N1c2ccc(-c3ccc(S(=O)(=O)C4CC4)cc3)cc2N(C(=O)OC2CCOCC2)C[C@@H]1C [Example I-1216] |
| 100 to 1000 nM | < 50 nM | < 100 nM | CC(=O)N1c2ccc(-c3ccc(S(=O)(=O)NCCO)cc3)cc2N(C(=O)OC2CCCCC2)C[C@@H]1C [Example I-1217] |
| 100 to 1000 nM | 50 to 500 nM | 100 to 500 nM | CC(=O)N1c2ccc(-c3ccc(S(=O)(=O)NCCO)cc3)cc2N(C(=O)OC2CCOCC2)C[C@@H]1C [Example I-1218] |
| 100 to 1000 nM | < 50 nM | < 100 nM | CC(=O)N1c2ccc(-c3cccc(S(N)(=O)=O)c3)cc2N(C(=O)OC2CCCCC2)C[C@@H]1C [Example I-1219] |
| 100 to 1000 nM | 50 to 500 nM | 100 to 500 nM | CC(=O)N1c2ccc(-c3cccc(S(N)(=O)=O)c3)cc2N(C(=O)OC2CCOCC2)C[C@@H]1C [Example I-1220] |
| 100 to 1000 nM | 50 to 500 nM | 100 to 500 nM | CC(=O)N1c2ccc(-c3cccc(NS(C)(=O)=O)c3)cc2N(C(=O)OC2CCCCC2)C[C@@H]1C [Example I-1221] |
| 100 to 1000 nM | 50 to 500 nM | 100 to 500 nM | CC(=O)N1c2ccc(-c3cccc(NS(C)(=O)=O)c3)cc2N(C(=O)OC2CCOCC2)C[C@@H]1C [Example I-1222] |
| 100 to 1000 nM | 50 to 500 nM | 100 to 500 nM | CC(=O)N1c2ccc(-c3cccc(S(=O)(=O)N(C)C)c3)cc2N(C(=O)OC2CCCCC2)C[C@@H]1C [Example I-1223] |
| 100 to 1000 nM | 50 to 500 nM | 100 to 500 nM | CC(=O)N1c2ccc(-c3cccc(S(=O)(=O)N(C)C)c3)cc2N(C(=O)OC2CCOCC2)C[C@@H]1C [Example I-1224] |
| 100 to 1000 nM | 50 to 500 nM | 100 to 500 nM | CC(=O)N1c2ccc(-c3cccc(S(C)(=O)=O)c3)cc2N(C(=O)OC2CCCCC2)C[C@@H]1C [Example I-1225] |
| 100 to 1000 nM | 50 to 500 nM | > 500 nM | CC(=O)N1c2ccc(-c3cccc(S(C)(=O)=O)c3)cc2N(C(=O)OC2CCOCC2)C[C@@H]1C [Example I-1226] |
| 100 to 1000 nM | 50 to 500 nM | 100 to 500 nM | CCS(=O)(=O)Nc1cccc(-c2ccc3c(c2)N(C(=O)OC2CCCCC2)C[C@H](C)N3C(C)=O)c1 [Example I-1227] |
| 100 to 1000 nM | 50 to 500 nM | 100 to 500 nM | CCS(=O)(=O)Nc1cccc(-c2ccc3c(c2)N(C(=O)OC2CCOCC2)C[C@H](C)N3C(C)=O)c1 [Example I-1228] |
| 100 to 1000 nM | 50 to 500 nM | 100 to 500 nM | CC(=O)N1c2ccc(-c3ccc(N4CCOCC4)cc3)cc2N(C(=O)OC2CCCCC2)C[C@@H]1C [Example I-1229] |
| 100 to 1000 nM | 50 to 500 nM | 100 to 500 nM | CC(=O)N1c2ccc(-c3ccc(N4CCOCC4)cc3)cc2N(C(=O)OC2CCOCC2)C[C@@H]1C [Example I-1230] |
| 100 to 1000 nM | 50 to 500 nM | 100 to 500 nM | CC(=O)N1c2ccc(-c3ccc(S(=O)(=O)C(C)C)cc3)cc2N(C(=O)OC2CCCCC2)C[C@@H]1C [Example I-1231] |
| 100 to 1000 nM | 50 to 500 nM | 100 to 500 nM | CC(=O)N1c2ccc(-c3ccc(S(=O)(=O)C(C)C)cc3)cc2N(C(=O)OC2CCOCC2)C[C@@H]1C [Example I-1232] |
| 100 to 1000 nM | 50 to 500 nM | 100 to 500 nM | CC(=O)N1c2ccc(-c3ccc(S(N)(=O)=O)cc3)cc2N(C(=O)OC2CCCCC2)C[C@@H]1C [Example I-1233] |

Reference: patent US10703764B2, “Benzopiperazine compositions as BET bromodomain inhibitors” (FORMA Therapeutics, Inc., priority 2013, dated 2020)
